Consider one compound from patent US20240174744A1, “METHODS OF TREATMENT USING PROTEIN BINDERS TO IRHOM2 EPITOPES” (SCIRHOM GMBH, priority 2021, published 2024).

The subject of this experiment is PMA-induced release of TGFα from PC3 cells. As to the kind of experiment: ELISA-based TGFα release assay, PMA-stimulated PC3 cells. Format: cell-based. The settings on record: Homo sapiens, PC-3; recombinant murine antibodies 1 μg/ml; Batimastat 10 μM; PMA 25 ng/ml, 2 hours. How it is done:
In the following study, ELISA-based TGFα release assays were performed to analyze the inhibitory effects of the antibodies of the present disclosure on PMA-induced release of endogenous TGFα from human PC3 prostate cancer cells.
In brief, on day 1, Nunc black MaxiSorp® 96-well plates (Thermo Fisher Scientific, USA) were coated overnight with 100 μl per well of goat anti-human TGFα capture antibody (provided as part of the DuoSet ELISA kit) at 0.4 μg/ml TBS at 4° C. On day 2, the capture antibody solution was removed and MaxiSorp® plates were blocked with 300 μl per well of TBS, 1% BSA at room temperature for 3 hours. […] Using an infinite M1000 (Tecan Group, Switzerland) microplate reader, the fluorescence of each well was collected at an excitation wavelength of 435 nm and an emission wavelength of 555 nm.

In general, inhibition refers to the share of the control response that was lost under treatment. Regarding `CNC(=O)[C@H](Cc1ccccc1)NC(=O)[C@H](CC(C)C)[C@H](CSc1cccs1)C(=O)NO` [Batimastat], the inhibition at 10 µM is 99.1%.
